Assay results as given in US6075121A, “Modified peptide and peptide libraries with protease resistance, derivatives thereof and methods of producing and screening such” (Chiron Corporation, priority 1995, dated 2000).
Residues, ends and D or L forms follow the SMILES beside them. *: point of attachment. Fmoc = O=C(OCC1c2ccccc2-c2ccccc21)*

Legend:
trypsin [1] = target: T1, trypsin (Bos taurus, UniProt P00760); test: Proteolysis of peptoids and peptides by trypsin; format: in vitro ADME
T1 construct: gene PRSS1
T1 sequence (P00760 24-246): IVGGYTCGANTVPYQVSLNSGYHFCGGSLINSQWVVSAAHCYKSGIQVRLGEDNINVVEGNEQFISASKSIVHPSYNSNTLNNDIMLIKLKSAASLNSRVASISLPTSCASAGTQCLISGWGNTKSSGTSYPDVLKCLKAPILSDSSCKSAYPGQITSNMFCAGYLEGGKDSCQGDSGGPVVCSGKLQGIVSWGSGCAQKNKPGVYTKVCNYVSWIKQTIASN
Text: (§1) Both compounds were purified to homogeneity by HPLC.

chymotrypsin [2] = target: chymotrypsin (Bos taurus, UniProt P00766); test: Proteolysis of peptoids and peptides by chymotrypsin; format: in vitro ADME
Text: as §1

[3] = system: antiserum S259-8 (epitope KDFL); test: Antibody binding of peptides and peptoids on pins, serum S259-8; set-up: key: A `P` represents a peptide sequence which gave the highest 6-8 signals; a `*` represents a peptoid sequence which scored in the top 6-10; settings: serum S259-8, epitope KDFL; for antibody binding signal rank, peptide sequence: peptide on pins; for antibody binding signal rank, peptoid sequence: peptoid on pins
Experimental: (§2) Peptoids and peptides were prepared on the pins and tested under standard conditions. The assay is best interpreted qualitatively, and the chart below gives a summary of data from three antisera tested. They are representative for the twelve sera which gave signals with both the peptoids and peptides. A `P` represents a peptide sequence which gave the highest 6-8 signals. Likewise, a `*` represents a peptoid sequence which scored in the top 6-10. For the three sera tested, 33/120 sequences are represented which lends support to the premise that there is selective binding shown by the antibody.

[4] = system: antiserum S259-6 (epitope DFLEKI); test: Antibody binding of peptides and peptoids on pins, serum S259-6; set-up: key: A `P` represents a peptide sequence which gave the highest 6-8 signals; a `*` represents a peptoid sequence which scored in the top 6-10; settings: serum S259-6, epitope DFLEKI
Experimental: as §2

[5] = target: T2, dihydrofolate reductase (DHFR) found in Pneumocystis carinii (Pneumocystis carinii, UniProt P16184); settings: stated without a test; cited from earlier work
T2 sequence (P16184 1-206): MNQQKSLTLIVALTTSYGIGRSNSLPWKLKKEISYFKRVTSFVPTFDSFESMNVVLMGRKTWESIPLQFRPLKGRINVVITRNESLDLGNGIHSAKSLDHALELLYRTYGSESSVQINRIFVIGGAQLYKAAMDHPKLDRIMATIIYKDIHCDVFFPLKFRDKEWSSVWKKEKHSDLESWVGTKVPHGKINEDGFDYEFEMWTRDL

trypsin [6] = system: T3, trypsin; test: Proteolysis of peptoids and peptides by trypsin; format: in vitro ADME; settings: trypsin (isolated protease) in Tris buffer, trypsin, 37° C., pH 8.0, read-out: % Area at 280 nm Remaining of Parent Peak by RP-HPLC
T3 construct: gene PRSS1
Text: as §1

chymotrypsin [7] = test: Proteolysis of peptoids and peptides by chymotrypsin; format: in vitro ADME; settings: chymotrypsin (isolated protease) in Tris buffer, chymotrypsin, 37° C., pH 8.0, read-out: % Area at 280 nm Remaining of Parent Peak by RP-HPLC
Text: as §1

[8] = system: bacterial dihydrofolate reductases; settings: stated without a test; cited from earlier work

Compound | antibody binding signal rank, peptide sequence [3] | antibody binding signal rank, peptide sequence [4] | further results
CC(C)C[C@H](NC(=O)OCC1c2ccccc2-c2ccccc21)C(=O)N[C@@H](CC(=O)O)C(=O)N[C@@H](Cc1ccccc1)C(=O)N[C@@H](CO)C(=O)N[C@@H](CCCCN)C(=O)NCC(=O)O [PEPTIDE, FMOC-LDFSKG-OH] (Fmoc-LDFSKG-OH) | – | – | number of places cleaved by trypsin (trypsin [1]): only one place; time to complete cleavage by trypsin (trypsin [1]; 37° C., pH 8.0): ≤ 5 min; number of chymotrypsin cleavage sites (chymotrypsin [2]): at least two cleavage sites; cleavage completed at the preferential chymotrypsin site (chymotrypsin [2]; after 10 minutes): ~ 60%; cleavage at the second chymotrypsin site (chymotrypsin [2]; after three hours): not completely cleaved
KSDFL | P | – | –
LKFDS | – | P | –
DFLSK | P | P | –
KDFLS | P | P | –
COc1cc(Cc2cnc(N)nc2N)cc(OC)c1NC(=O)CCC(=O)O [2,4-diamino-5-[3,5-di-methoxy-4-(3-hydrocarboxy-1-oxopropylamino)benzyl]pyrimidine] | – | – | inhibitory activity on DHFR [5]: inhibitory activity specific for the enzyme dihydrofolate reductase (DHFR) found in Pneumocystis carinii
SDFLK | P | P | antibody binding signal rank, peptoid sequence [3]: *
FSKLD | – | P | –
KFLDS | – | P | –
CC(C)CN(CC(=O)N(CC(=O)O)CC(=O)N(CC(=O)N(CCO)CC(=O)N(CCN)CC(=O)NCC(=O)O)Cc1ccccc1)C(=O)OCC1c2ccccc2-c2ccccc21 [PEPTOID, FMOC-L*D*F*S*K*G-OH] | – | – | change of substrate under proteolysis conditions (trypsin [1]; all reaction conditions (trypsin, chymotrypsin, control)): remained unchanged; remaining at 5 min, 0.48 mg/mL (trypsin [6]; 5 min): 100%; remaining at 10 min, 0.48 mg/mL (trypsin [6]; 10 min): 100%; remaining at 3 h, 0.48 mg/mL (trypsin [6]; 3 hours): 100%; remaining at 5 min, 0.48 mg/mL (chymotrypsin [7]; 5 min): 100%; remaining at 10 min, 0.48 mg/mL (chymotrypsin [7]; 10 min): 100%; remaining at 3 h, 0.48 mg/mL (chymotrypsin [7]; 3 hours): 100%
DKFSL | – | P | –
COc1cc(Cc2cnc(N)nc2N)cc(OC)c1OC [Trimethoprim] | – | – | inhibition of dihydrofolate reductases [8]: potent inhibitor
LKSFD | P | – | antibody binding signal rank, peptoid sequence [3]: *
SFLDK | P | – | –
SKDFL | P | – | –
KLSFD | P | – | antibody binding signal rank, peptoid sequence [3]: *
LFKDS | – | P | –
DFLKS | P | – | –
